In the supplement of paper PMC12463676, “Small-molecule dissolution of stress granules by redox modulation benefits ALS models” (Nature Chemical Biology, 2025):

Key:
lipoamide = compound: NC(=O)CCCCC1CCSS1 [lipoamide]; assay: thermal stability z-score vs DMSO; higher = more thermally stabilized by treatment; settings: HeLa, lipoamide concentration 100 µM
Procedure: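 Cellular thermal proteome profiling in HeLa cells. Cells were treated with 100 µM lipoamide for 1 h, with or without 1 mM arsenate for a further 1 h, then heated to ten temperatures (37-66.3 °C), and soluble protein was quantified by TMT mass spectrometry relative to 0.1% DMSO controls. The thermal stability score (sum of log2 fold changes minus the abundance score) was transformed to a z-score; mean of n = 3 experiments.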

potassium arsenate = compound: O=[As]([O-])(O)O.[K+] [potassium arsenate]; assay: as above; settings: HeLa; arsenate concentration 1 mM
Procedure: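 Cellular thermal proteome profiling in HeLa cells treated with 1 mM arsenate for 1 h (DMSO pretreatment), heated to ten temperatures (37-66.3 °C). Soluble protein was quantified by TMT mass spectrometry relative to DMSO controls; the thermal stability score was transformed to a z-score; mean of n = 3 experiments.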

[1] = arsenate co-treatment: 1 mM arsenate 1 h
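Further: each temperature applied for 3 min, abundance score taken as mean log2 fold change at the two lowest temperatures, z-score obtained by mean subtraction and division by SD.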

UniProt O94923, sequence (O94923 whole entry): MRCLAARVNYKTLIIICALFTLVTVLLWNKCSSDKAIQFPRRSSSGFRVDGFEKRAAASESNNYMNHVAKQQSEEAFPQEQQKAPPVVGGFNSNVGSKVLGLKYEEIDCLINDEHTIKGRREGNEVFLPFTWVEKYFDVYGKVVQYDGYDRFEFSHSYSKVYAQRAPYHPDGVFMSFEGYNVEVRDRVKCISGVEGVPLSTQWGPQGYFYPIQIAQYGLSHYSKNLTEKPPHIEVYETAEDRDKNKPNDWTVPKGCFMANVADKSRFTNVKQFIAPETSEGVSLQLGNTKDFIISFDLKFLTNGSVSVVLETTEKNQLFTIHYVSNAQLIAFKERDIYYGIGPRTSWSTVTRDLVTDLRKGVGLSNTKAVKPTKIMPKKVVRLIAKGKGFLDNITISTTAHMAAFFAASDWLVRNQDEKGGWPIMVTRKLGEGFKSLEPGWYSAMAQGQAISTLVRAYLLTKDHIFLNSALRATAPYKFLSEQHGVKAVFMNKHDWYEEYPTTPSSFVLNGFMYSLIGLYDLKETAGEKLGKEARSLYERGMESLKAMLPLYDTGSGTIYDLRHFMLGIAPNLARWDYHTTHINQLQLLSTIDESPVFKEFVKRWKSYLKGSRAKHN
UniProt Q8WWB7, sequence (Q8WWB7 whole entry): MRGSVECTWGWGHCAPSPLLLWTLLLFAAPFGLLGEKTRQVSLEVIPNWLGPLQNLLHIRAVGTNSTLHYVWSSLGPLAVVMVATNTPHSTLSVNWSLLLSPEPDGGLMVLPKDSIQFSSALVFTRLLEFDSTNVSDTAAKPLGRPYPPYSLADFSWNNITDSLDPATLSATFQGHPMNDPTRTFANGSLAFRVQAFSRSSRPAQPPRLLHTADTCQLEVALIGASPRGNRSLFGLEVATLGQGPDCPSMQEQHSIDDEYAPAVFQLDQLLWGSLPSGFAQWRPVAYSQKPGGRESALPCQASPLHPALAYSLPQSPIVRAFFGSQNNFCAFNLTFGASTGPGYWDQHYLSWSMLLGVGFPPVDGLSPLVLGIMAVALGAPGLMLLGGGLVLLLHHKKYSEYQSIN
UniProt Q49A26, sequence (Q49A26 whole entry): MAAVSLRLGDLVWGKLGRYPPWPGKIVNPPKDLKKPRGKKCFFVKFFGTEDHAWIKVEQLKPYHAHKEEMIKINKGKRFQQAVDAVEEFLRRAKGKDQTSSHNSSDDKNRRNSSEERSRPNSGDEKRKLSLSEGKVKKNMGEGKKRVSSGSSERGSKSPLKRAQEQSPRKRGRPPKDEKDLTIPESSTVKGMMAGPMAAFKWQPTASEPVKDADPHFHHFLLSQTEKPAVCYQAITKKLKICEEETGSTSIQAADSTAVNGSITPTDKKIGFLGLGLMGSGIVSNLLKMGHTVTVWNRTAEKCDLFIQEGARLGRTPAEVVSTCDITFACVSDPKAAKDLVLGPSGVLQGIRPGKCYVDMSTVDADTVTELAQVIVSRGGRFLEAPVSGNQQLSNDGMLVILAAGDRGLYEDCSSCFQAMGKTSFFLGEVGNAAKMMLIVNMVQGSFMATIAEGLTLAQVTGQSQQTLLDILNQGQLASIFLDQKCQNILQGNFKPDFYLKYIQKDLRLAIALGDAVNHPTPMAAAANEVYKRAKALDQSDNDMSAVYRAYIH
UniProt Q9P2T1, sequence (Q9P2T1 whole entry): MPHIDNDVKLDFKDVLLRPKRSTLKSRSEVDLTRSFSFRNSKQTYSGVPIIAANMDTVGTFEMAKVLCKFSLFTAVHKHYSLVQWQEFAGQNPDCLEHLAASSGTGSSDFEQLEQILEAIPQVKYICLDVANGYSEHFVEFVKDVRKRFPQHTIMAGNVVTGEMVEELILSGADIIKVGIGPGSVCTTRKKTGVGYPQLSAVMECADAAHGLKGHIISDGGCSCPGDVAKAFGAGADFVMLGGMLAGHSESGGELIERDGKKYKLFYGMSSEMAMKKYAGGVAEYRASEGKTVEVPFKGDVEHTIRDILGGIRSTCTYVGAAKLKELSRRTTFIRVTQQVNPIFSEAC
UniProt Q86SX6, sequence (Q86SX6 whole entry): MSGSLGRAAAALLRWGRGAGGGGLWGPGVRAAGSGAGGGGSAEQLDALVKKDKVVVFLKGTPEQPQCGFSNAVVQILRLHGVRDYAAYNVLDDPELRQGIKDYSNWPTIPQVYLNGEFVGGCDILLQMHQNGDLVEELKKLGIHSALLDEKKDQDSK
UniProt O76003, sequence (O76003 whole entry): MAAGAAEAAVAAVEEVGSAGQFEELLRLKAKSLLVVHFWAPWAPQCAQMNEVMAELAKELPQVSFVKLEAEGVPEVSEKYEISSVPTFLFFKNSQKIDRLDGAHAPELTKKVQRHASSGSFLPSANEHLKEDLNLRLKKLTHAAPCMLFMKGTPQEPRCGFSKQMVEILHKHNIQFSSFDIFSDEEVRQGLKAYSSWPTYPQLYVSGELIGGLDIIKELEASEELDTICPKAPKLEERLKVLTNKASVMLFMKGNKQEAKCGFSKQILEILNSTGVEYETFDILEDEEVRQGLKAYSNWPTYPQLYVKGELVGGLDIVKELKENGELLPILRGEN
UniProt Q9P107, sequence (Q9P107 whole entry): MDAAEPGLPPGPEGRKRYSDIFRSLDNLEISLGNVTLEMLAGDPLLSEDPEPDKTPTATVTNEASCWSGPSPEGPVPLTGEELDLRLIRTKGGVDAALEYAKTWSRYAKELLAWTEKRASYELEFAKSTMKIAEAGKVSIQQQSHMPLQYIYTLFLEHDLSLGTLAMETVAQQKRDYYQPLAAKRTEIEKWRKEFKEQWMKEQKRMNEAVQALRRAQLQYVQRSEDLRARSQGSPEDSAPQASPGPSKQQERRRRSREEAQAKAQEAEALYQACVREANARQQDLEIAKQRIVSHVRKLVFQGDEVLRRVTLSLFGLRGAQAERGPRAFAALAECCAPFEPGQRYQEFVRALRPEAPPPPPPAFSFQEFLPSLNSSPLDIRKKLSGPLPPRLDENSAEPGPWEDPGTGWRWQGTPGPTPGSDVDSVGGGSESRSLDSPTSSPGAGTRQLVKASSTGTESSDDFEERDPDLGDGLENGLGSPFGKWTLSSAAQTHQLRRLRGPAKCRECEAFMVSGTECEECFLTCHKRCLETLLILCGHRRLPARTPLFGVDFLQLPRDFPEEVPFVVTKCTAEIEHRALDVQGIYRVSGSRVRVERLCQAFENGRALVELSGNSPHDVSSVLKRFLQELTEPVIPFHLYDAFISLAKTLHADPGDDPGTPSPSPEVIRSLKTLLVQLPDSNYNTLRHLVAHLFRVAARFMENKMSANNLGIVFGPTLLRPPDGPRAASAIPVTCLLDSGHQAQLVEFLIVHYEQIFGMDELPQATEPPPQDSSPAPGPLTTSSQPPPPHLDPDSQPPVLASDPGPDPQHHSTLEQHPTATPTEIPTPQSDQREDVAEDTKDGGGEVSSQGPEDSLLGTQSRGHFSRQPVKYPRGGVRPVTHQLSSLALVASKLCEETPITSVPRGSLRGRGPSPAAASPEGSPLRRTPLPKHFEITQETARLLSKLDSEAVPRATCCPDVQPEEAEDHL
UniProt Q9Y5P6, sequence (Q9Y5P6 whole entry): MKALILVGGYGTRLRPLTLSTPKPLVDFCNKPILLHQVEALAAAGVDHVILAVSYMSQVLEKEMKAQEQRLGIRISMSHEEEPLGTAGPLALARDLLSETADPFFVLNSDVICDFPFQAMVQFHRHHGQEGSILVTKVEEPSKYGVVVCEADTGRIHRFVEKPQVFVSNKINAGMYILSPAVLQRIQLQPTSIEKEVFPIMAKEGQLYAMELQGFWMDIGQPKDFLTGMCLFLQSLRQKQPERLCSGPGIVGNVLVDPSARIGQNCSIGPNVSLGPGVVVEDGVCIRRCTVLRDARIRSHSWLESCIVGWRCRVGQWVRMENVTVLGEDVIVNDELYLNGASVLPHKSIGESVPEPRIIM
UniProt Q92990, sequence (Q92990 whole entry): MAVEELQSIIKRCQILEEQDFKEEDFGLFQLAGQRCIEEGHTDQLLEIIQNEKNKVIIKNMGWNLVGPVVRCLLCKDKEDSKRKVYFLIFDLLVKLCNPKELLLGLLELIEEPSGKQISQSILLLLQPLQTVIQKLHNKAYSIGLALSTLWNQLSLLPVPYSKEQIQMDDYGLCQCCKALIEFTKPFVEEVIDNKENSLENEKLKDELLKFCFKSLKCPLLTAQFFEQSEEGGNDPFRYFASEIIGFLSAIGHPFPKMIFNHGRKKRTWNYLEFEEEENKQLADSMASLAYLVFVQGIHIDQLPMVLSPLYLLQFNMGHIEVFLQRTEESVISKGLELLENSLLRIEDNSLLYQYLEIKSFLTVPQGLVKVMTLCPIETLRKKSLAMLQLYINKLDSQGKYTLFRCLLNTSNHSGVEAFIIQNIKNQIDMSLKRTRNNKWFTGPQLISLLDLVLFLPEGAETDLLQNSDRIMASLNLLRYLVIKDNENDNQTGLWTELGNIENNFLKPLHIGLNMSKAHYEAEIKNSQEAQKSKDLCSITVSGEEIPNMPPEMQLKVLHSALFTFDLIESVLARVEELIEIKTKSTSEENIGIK
UniProt O75496, sequence (O75496 whole entry): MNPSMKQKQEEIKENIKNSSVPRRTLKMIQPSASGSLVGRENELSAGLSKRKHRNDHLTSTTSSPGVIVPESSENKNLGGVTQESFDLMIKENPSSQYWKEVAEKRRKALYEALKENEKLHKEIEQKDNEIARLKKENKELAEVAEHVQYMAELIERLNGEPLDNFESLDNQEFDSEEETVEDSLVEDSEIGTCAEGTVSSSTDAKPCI
UniProt P60983, sequence (P60983 whole entry): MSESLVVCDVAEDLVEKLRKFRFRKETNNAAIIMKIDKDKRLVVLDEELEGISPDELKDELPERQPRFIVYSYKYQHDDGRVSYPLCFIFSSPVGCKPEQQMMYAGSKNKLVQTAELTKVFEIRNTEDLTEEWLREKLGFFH
UniProt Q9NS18, sequence (Q9NS18 whole entry): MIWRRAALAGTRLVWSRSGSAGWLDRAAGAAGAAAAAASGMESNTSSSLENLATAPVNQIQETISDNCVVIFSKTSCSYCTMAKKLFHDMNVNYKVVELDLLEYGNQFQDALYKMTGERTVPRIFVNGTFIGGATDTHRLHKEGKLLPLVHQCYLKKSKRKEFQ

Target | thermal stability z-score (lipoamide; [1]) | thermal stability z-score (lipoamide; arsenate co-treatment: none) | thermal stability z-score (potassium arsenate)
GLB1 (UniProt P16278) | -0.564 | -0.0527 | -0.438
GLCCI1 (UniProt Q86VQ1) | -0.207 | -0.418 | -0.627
GLCE (UniProt O94923) | 0.386 | 0.177 | 0.231
GLG1 (UniProt Q92896) | -1.88 | -1.9 | -0.0446
GLMN (UniProt Q92990) | -0.559 | -0.296 | -0.181
GLMP (UniProt Q8WWB7) | 2.79 | 3.71 | 3.11
GLO1 (UniProt Q04760) | 1.12 | 0.739 | 1.62
GLOD4 (UniProt Q9HC38) | 2.19 | 2.33 | 0.311
GLRX2 (UniProt Q9NS18) | 1.4 | 1.7 | 3.8
GLRX3 (UniProt O76003) | 0.153 | 0.465 | 0.88
GLRX5 (UniProt Q86SX6) | 1.13 | -0.225 | -0.462
GLS (UniProt O94925) | -0.371 | -0.00934 | 0.351
GLT8D1 (UniProt Q68CQ7) | -0.426 | -0.593 | 0.145
GLT8D2 (UniProt Q9H1C3) | -1.22 | -0.83 | -0.0179
GLTP (UniProt Q9NZD2) | 0.912 | 0.581 | 0.72
GLTSCR2 (UniProt Q9NZM5) | 0.409 | -0.522 | -2.53
GLUD1 (UniProt P00367) | -1.37 | -0.412 | -0.578
GLUL (UniProt P15104) | 0.732 | 0.282 | -1.16
GLYR1 (UniProt Q49A26) | 0.0933 | -0.0315 | -0.145
GMDS (UniProt O60547) | 0.538 | 0.00997 | -0.189
GMEB1 (UniProt Q9Y692) | -0.239 | -0.0658 | 0.19
GMEB2 (UniProt Q9UKD1) | 0.0462 | -0.00217 | 0.453
GMFB (UniProt P60983) | 0.0996 | 0.368 | -0.675
GMIP (UniProt Q9P107) | -0.232 | -0.0407 | -0.0798
GMNN (UniProt O75496) | 0.365 | 0.809 | 0.576
GMPPA (UniProt Q96IJ6) | -0.54 | -1.04 | -0.0973
GMPPB (UniProt Q9Y5P6) | -0.503 | -0.625 | -0.104
GMPR2 (UniProt Q9P2T1) | 0.37 | 0.368 | 0.121
